Bridge positions count the residues as written; N and C are the ends. Square brackets hold non-standard residues; d marks the D form. Peptide text beside a SMILES is read from it. * marks the point of attachment. ξ: configuration not given here. Tyr(3-NO2) = N[C@@H](Cc1ccc(O)c([N+](=O)[O-])c1)C(=O)O; Phe(4-NO2) = N[C@@H](Cc1ccc([N+](=O)[O-])cc1)C(=O)O; Phe(4-COOH) = N[C@@H](Cc1ccc(C(=O)O)cc1)C(=O)O; Bip = N[C@@H](Cc1ccc(-c2ccccc2)cc1)C(=O)O; Phe(3-Me) = Cc1cccc(C[C@H](N)C(=O)O)c1; Val(3-OH) = CC(C)(O)[C@H](N)C(=O)O; 4Pal = N[C@@H](Cc1ccncc1)C(=O)O; 3Thi = N[C@@H](Cc1ccsc1)C(=O)O; Cha = N[C@@H](CC1CCCCC1)C(=O)O; Cit = NC(=O)NCCC[C@H](N)C(=O)O; Ile(3ξ) = CCC(C)[C@H](N)C(=O)O; Thr(3ξ) = CC(O)[C@H](N)C(=O)O; Tle = CC(C)(C)[C@H](N)C(=O)O; ξCha = NC(CC1CCCCC1)C(=O)O; Carboxymethyl = O=C(O)C*; NMeA = CN[C@@H](C)C(=O)O; Nle = CCCC[C@H](N)C(=O)O; Orn = NCCC[C@H](N)C(=O)O; Pra = C#CC[C@H](N)C(=O)O; Dab = NCC[C@H](N)C(=O)O; NH(CH2)3NH2 = NCCCN*; Piv = CC(C)(C)C(=O)*; Bn = c1ccc(C*)cc1

T1 sequence (Q15116 25-288): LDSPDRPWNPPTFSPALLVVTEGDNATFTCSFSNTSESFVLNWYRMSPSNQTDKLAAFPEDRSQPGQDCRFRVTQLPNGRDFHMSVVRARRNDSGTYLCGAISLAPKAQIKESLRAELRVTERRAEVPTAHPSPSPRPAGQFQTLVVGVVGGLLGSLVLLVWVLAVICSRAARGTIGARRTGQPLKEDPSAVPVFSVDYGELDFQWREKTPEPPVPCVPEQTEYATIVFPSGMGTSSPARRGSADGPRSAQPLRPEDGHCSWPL

One test addresses T1, PE-labeled human PD-L1-Ig binding to Jurkat cell line over-expressing human PD-1 (Jurkat-PD-1) (Homo sapiens, UniProt Q15116).
T1 construct: expressed in transfected cells; host or cells: Jurkat
Nature of the test: Jurkat-PD-1 Cell Binding High-Content Screening Assay (CBA): Method 1. The settings on record: Jurkat HPDL1 PD1 IC50 (uM) (Method 1), Jurkat-hPD-1 cells, PE-labeled PD-L1-Ig 20 nM final.
For the molecule `CC(C)C[C@@H]1NC(=O)[C@H](Cc2c[nH]c3ccccc23)NC(=O)[C@H](CC(=O)O)NC(=O)[C@H](Cc2ccc(OCC(=O)O)cc2)NC(=O)[C@H](Cc2ccccc2)NC(=O)CSC[C@@H](C(=O)N[C@@H](C)C(N)=O)NC(=O)[C@H](CO)NC(=O)[C@H](C(C)C)NC(=O)[C@H](CC(C)C)NC(=O)[C@H](CC(N)=O)NC(=O)[C@@H](CC(C)C)NC(=O)[C@H](C)N(C)C(=O)[C@H](C(C)C)NC(=O)[C@H](Cc2ccc(OCc3ccccc3)cc2)NC1=O` [Compound 2028] ({CH2CO}-FY(Carboxymethyl)DWLY(Bn)V[NMeA][dL]NLVSCA-NH2; thioether N-14), the IC50 is 0.48 µM.

The test is the same for the next values; noted with them: Jurkat-PD-1 cells, PE-labeled PD-L1-Ig; μM; read-out: CBA Method 1 μM.
In the case of `CCC(C)[C@@H]1NC(=O)[C@H](Cc2ccc(-c3ccccc3)cc2)NC(=O)[C@H](C(C)C)NC(=O)[C@H](Cc2c[nH]c3ccccc23)NC(=O)[C@H](CC(=O)O)NC(=O)[C@H](Cc2ccc(OCC(=O)O)cc2)NC(=O)[C@H](C(C)O)NC(=O)CSC[C@@H](C(=O)N[C@@H](CO)C(=O)NCC(=O)N[C@@H](CO)C(N)=O)NC(=O)[C@H](C(C)O)NC(=O)[C@H](C(C)C)NC(=O)C(CC2CCCCC2)NC(=O)[C@H](CCN)NC(=O)[C@@H](CC(C)C)NC(=O)[C@H](C)N(C)C1=O` (stereo partly drawn) [Example 5003] ({CH2CO}-[Thr(3ξ)]Y(Carboxymethyl)DWV[Bip][Ile(3ξ)][NMeA][dL][Dab][ξCha]V[Thr(3ξ)]CSGS-NH2; thioether N-14), the IC50 is 0.03 µM.

The test is the same for the next values; noted with them: Jurkat-hPD-1 cells, PE-labeled PD-L1-Ig 20 nM final; read-out: Jurkat HPDL1 PD1 IC50 (uM) (Method 1).
For `CC(C)C[C@@H]1NC(=O)[C@H](CCN)NC(=O)[C@@H](CC(C)C)NC(=O)[C@H](C)N(C)C(=O)[C@H](CCCNC(=N)N)NC(=O)[C@H](Cc2ccc(-c3ccccc3)cc2)NC(=O)[C@H](C(C)C)NC(=O)[C@H](Cc2c[nH]c3ccccc23)NC(=O)[C@H](CC(=O)O)NC(=O)[C@H](Cc2ccc(O)cc2)NC(=O)[C@H](CC(N)=O)NC(=O)CSC[C@@H](C(=O)N[C@@H](C)C(N)=O)NC(=O)[C@H]([C@@H](C)O)NC(=O)[C@H](C(C)C)NC1=O` [Compound 1038] ({CH2CO}-NYDWV[Bip]R[NMeA][dL][Dab]LVTCA-NH2; thioether N-14), the IC50 turned out to be 0.13 µM.
As to `CCCC[C@@H]1NC(=O)[C@H](CCCNC(=N)N)NC(=O)[C@@H](CC(C)C)NC(=O)[C@H](C)N(C)C(=O)[C@H](C(C)C)NC(=O)[C@H](Cc2ccc(-c3ccccc3)cc2)NC(=O)[C@H](C(C)C)NC(=O)[C@H](Cc2c[nH]c3ccccc23)NC(=O)[C@H](CC(=O)O)NC(=O)[C@H](Cc2ccc(O)cc2)NC(=O)[C@H](Cc2ccccc2)NC(=O)CSC[C@@H](C(=O)N[C@@H](C)C(N)=O)NC(=O)[C@H]([C@@H](C)O)NC(=O)[C@H](C(C)C)NC1=O` [Compound 1502] ({CH2CO}-FYDWV[Bip]V[NMeA][dL]R[Nle]VTCA-NH2; thioether N-14), the IC50 turned out to be 0.1 µM.
Same read-out and setting: in the case of `CC(C)C[C@@H]1NC(=O)[C@H](CCN)NC(=O)[C@@H](CC(C)C)NC(=O)[C@H](C)N(C)C(=O)[C@H](CCCNC(N)=O)NC(=O)[C@H](Cc2ccc(-c3ccccc3)cc2)NC(=O)[C@H](C(C)C)NC(=O)[C@H](Cc2c[nH]c3ccccc23)NC(=O)[C@H](CC(=O)O)NC(=O)[C@H](Cc2ccc(O)c([N+](=O)[O-])c2)NC(=O)[C@H](CC(N)=O)NC(=O)CSC[C@@H](C(=O)N[C@@H](C)C(N)=O)NC(=O)[C@H]([C@@H](C)O)NC(=O)[C@H](C(C)C)NC1=O` [Compound 1319] ({CH2CO}-N[Tyr(3-NO2)]DWV[Bip][Cit][NMeA][dL][Dab]LVTCA-NH2; thioether N-14) it was 0.04 µM; in that of `CC(C)C[C@@H]1NC(=O)[C@H](Cc2c[nH]c3ccccc23)NC(=O)[C@H](CC(=O)O)NC(=O)[C@H](Cc2ccncc2)NC(=O)[C@H](Cc2ccc(OCC(=O)O)cc2)NC(=O)CSC[C@@H](C(=O)N[C@@H](CCN)C(N)=O)NC(=O)[C@H](CCCN)NC(=O)[C@H](C(C)C)NC(=O)[C@H](CC2CCCCC2)NC(=O)[C@H](CCN)NC(=O)[C@@H](CC(C)C)NC(=O)[C@H](C)N(C)C(=O)[C@H](C(C)C)NC(=O)[C@H](Cc2ccc(-c3ccccc3)cc2)NC1=O` [Compound 1948] ({CH2CO}-Y(Carboxymethyl)[4Pal]DWL[Bip]V[NMeA][dL][Dab][Cha]V[Orn]C[Dab]-NH2; thioether N-14), 0.02 µM.
For `CCC(C)[C@@H]1NC(=O)[C@H](Cc2ccc(-c3ccccc3)cc2)NC(=O)[C@H](C(C)C)NC(=O)[C@H](Cc2c[nH]c3ccccc23)NC(=O)[C@H](CC(=O)O)NC(=O)[C@H](Cc2ccc(O)cc2)NC(=O)[C@H](Cc2ccsc2)NC(=O)CSC[C@@H](C(=O)NCCCN)NC(=O)[C@H](C(C)O)NC(=O)[C@H](C(C)(C)O)NC(=O)[C@H](CC2CCCCC2)NC(=O)[C@H](CC(N)=O)NC(=O)[C@@H](CC(C)C)NC(=O)[C@H](C)N(C)C1=O` (stereo partly drawn) [Compound 2247] ({CH2CO}-[3Thi]YDWV[Bip][Ile(3ξ)][NMeA][dL]N[Cha][Val(3-OH)][Thr(3ξ)]C-{NH(CH2)3NH2}; thioether N-14), the IC50 was determined as 0.06 µM.
With `C#CC[C@H](NC(=O)[C@@H](C)NC(=O)[C@@H]1CSCC(=O)N[C@@H](Cc2cnc[nH]2)C(=O)N[C@@H](Cc2ccc(OCC(=O)O)cc2)C(=O)N[C@@H](CC(=O)O)C(=O)N[C@@H](Cc2c[nH]c3ccccc23)C(=O)N[C@@H](C(C)C)C(=O)N[C@@H](Cc2ccc(-c3ccccc3)cc2)C(=O)N[C@@H](C(C)CC)C(=O)N(C)[C@@H](C)C(=O)N[C@H](CC(C)C)C(=O)N[C@@H](CCN)C(=O)N[C@@H](CC2CCCCC2)C(=O)N[C@@H](C(C)(C)O)C(=O)N[C@@H](CO)C(=O)N1)C(=O)O` (stereo partly drawn) [Compound 2239] ({CH2CO}-HY(Carboxymethyl)DWV[Bip][Ile(3ξ)][NMeA][dL][Dab][Cha][Val(3-OH)]SC[dA][Pra]-OH; thioether N-14), the IC50 worked out at 0.02 µM.
On to `CC(C)C[C@@H]1NC(=O)[C@H](CCN)NC(=O)[C@@H](CC(C)C)NC(=O)[C@H](C)N(C)C(=O)[C@H](CCCNC(=N)N)NC(=O)[C@H](Cc2ccc(-c3ccccc3)cc2)NC(=O)[C@H](C(C)C)NC(=O)[C@H](Cc2c[nH]c3ccccc23)NC(=O)[C@H](CC(=O)O)NC(=O)[C@H](Cc2ccc(O)cc2)NC(=O)[C@H](Cc2ccc([N+](=O)[O-])cc2)NC(=O)CSC[C@@H](C(=O)N[C@@H](C)C(N)=O)NC(=O)[C@H]([C@@H](C)O)NC(=O)[C@H](C(C)C)NC1=O` [Compound 1187] ({CH2CO}-[Phe(4-NO2)]YDWV[Bip]R[NMeA][dL][Dab]LVTCA-NH2; thioether N-14), for which the IC50 came to 0.05 µM.
Same read-out and setting: to `CC(C)C[C@H]1NC(=O)[C@H](C)N(C)C(=O)[C@H](CCCN)NC(=O)[C@H](Cc2ccc(-c3ccccc3)cc2)NC(=O)[C@H](C(C)C)NC(=O)[C@H](Cc2c[nH]c3ccccc23)NC(=O)[C@H](CC(=O)O)NC(=O)[C@H](Cc2ccc(O)cc2)NC(=O)[C@H](CC(N)=O)NC(=O)CSC[C@@H](C(=O)N[C@@H](C)C(N)=O)NC(=O)[C@H]([C@@H](C)O)NC(=O)[C@H](C(C)C)NC(=O)[C@H](CC2CCCCC2)NC(=O)[C@H](CCCNC(=N)N)NC1=O` [Compound 1276] ({CH2CO}-NYDWV[Bip][Orn][NMeA][dL]R[Cha]VTCA-NH2; thioether N-14) belongs 0.03 µM; to `CC(C)C[C@H]1NC(=O)[C@H](C)N(C)C(=O)[C@H](Cc2ccc(OCC(=O)O)cc2)NC(=O)[C@H](Cc2ccc(-c3ccccc3)cc2)NC(=O)[C@H](Cc2ccc(C(=O)O)cc2)NC(=O)[C@H](Cc2c[nH]c3ccccc23)NC(=O)[C@H](CC(=O)O)NC(=O)[C@H](Cc2ccc(OCC(=O)O)cc2)NC(=O)[C@H](Cc2ccsc2)NC(=O)CSC[C@@H](C(=O)N[C@@H](CCN)C(N)=O)NC(=O)[C@H](CO)NC(=O)[C@H](C(C)(C)O)NC(=O)[C@H](CC2CCCCC2)NC(=O)[C@H](CCN)NC1=O` [Compound 2130] ({CH2CO}-[3Thi]Y(Carboxymethyl)DW[Phe(4-COOH)][Bip]Y(Carboxymethyl)[NMeA][dL][Dab][Cha][Val(3-OH)]SC[Dab]-NH2; thioether N-14), 0.03 µM.
Still for that read-out and setting: in the case of `Cc1cccc(C[C@@H]2NC(=O)[C@H](CC(=O)O)NC(=O)[C@H](Cc3ccncc3)NC(=O)[C@H](Cc3ccc(OCC(=O)O)cc3)NC(=O)CSC[C@@H](C(=O)N[C@@H](CCC(=O)O)C(N)=O)NC(=O)[C@H](CO)NC(=O)[C@H](C(C)C)NC(=O)[C@H](CC(C)C)NC(=O)[C@H](CC(N)=O)NC(=O)[C@@H](CC(C)C)NC(=O)[C@H](C)N(C)C(=O)[C@H](C(C)C)NC(=O)[C@H](Cc3ccc(-c4ccccc4)cc3)NC(=O)[C@H](CC(C)C)NC2=O)c1` [Compound 1603] ({CH2CO}-Y(Carboxymethyl)[4Pal]D[Phe(3-Me)]L[Bip]V[NMeA][dL]NLVSCE-NH2; thioether N-14) it was 0.01 µM; in that of `Cc1cccc(C[C@@H]2NC(=O)[C@H](CC(=O)O)NC(=O)[C@H](Cc3ccc(OCC(=O)O)cc3)NC(=O)[C@H](Cc3ccncc3)NC(=O)CSC[C@@H](C(=O)N[C@@H](CCNC(=O)C(C)(C)C)C(N)=O)NC(=O)[C@H]([C@@H](C)O)NC(=O)[C@H](C(C)C)NC(=O)[C@H](CC3CCCCC3)NC(=O)[C@H](CCN)NC(=O)[C@@H](CC(C)C)NC(=O)[C@H](C)N(C)C(=O)[C@H](Cc3ccc(OCC(=O)O)cc3)NC(=O)[C@H](Cc3ccc(-c4ccccc4)cc3)NC(=O)[C@H](Cc3ccc(OCC(=O)O)cc3)NC2=O)c1` [Compound 1867] ({CH2CO}-[4Pal]Y(Carboxymethyl)D[Phe(3-Me)]Y(Carboxymethyl)[Bip]Y(Carboxymethyl)[NMeA][dL][Dab][Cha]VTC[Dab](Piv)-NH2; thioether N-14), 0.03 µM; in that of `CC(C)C[C@@H]1NC(=O)[C@H](Cc2c[nH]c3ccccc23)NC(=O)[C@H](CC(=O)O)NC(=O)[C@H](Cc2ccc(C(=O)O)cc2)NC(=O)[C@H](Cc2ccc(OCC(=O)O)cc2)NC(=O)CSC[C@@H](C(=O)N[C@@H](CC(N)=O)C(N)=O)NC(=O)[C@H](CO)NC(=O)[C@H](C(C)(C)C)NC(=O)[C@H](CC2CCCCC2)NC(=O)[C@H](CCN)NC(=O)[C@@H](CC(C)C)NC(=O)[C@H](C)N(C)C(=O)[C@H](C(C)C)NC(=O)[C@H](Cc2ccc(-c3ccccc3)cc2)NC1=O` [Compound 1914] ({CH2CO}-Y(Carboxymethyl)[Phe(4-COOH)]DWL[Bip]V[NMeA][dL][Dab][Cha][Tle]SCN-NH2; thioether N-14), 0.01 µM.

For the origin of these results see patent US20240409585A1, “MACROCYCLIC IMMUNOMODULATORS” (priority 2021, published 2024).
